Source: patent publication US12215116B2, “Arginase inhibitors and methods of use” (Merck Sharp & Dohme LLC, priority 2018, dated 2025)

Assays:
[1] = test system: opossum internal anal sphincter muscle; details: cited from earlier work
guinea pigs = details: nebulizer treatment, allergic asthma model; cited from earlier work
[2] = test system: rabbit and human penile corpus cavernosum; details: rabbit and human tissue; cited from earlier work
live male rabbits = details: cited from earlier work
[3] = test system: corpus cavernosum of the diabetic man; details: ex vivo; cited from earlier work
live female rabbits = details: cited from earlier work
[4] = test system: animal model of multiple sclerosis (experimental autoimmune encephalomyelitis); details: cited from earlier work
Arginase (ARG1 enzyme) = molecular target: T1, Arginase (ARG1 enzyme) (Homo sapiens, UniProt P05089); test: Arginase Thioornithine Generating Assay (TOGA); format: biochemical; details: 1.88 nM arginase, thioarginine substrate, fluorescence readout
T1 construct: made in house; host or cells: Escherichia coli
T1 sequence (P05089 1-322): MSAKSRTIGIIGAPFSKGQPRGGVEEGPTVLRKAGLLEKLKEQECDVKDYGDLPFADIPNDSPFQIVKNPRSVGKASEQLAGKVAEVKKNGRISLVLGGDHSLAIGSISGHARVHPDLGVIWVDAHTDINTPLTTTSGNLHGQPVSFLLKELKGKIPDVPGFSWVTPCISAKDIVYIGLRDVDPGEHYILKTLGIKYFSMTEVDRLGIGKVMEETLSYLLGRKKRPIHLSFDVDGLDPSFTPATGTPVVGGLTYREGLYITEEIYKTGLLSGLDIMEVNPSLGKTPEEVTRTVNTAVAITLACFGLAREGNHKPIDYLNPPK

SMILES	IC50 (Arginase (ARG1 enzyme)) [nM]	further results
N[C@@H](CCCCB(O)O)C(=O)O [ABH, (S)-2-amino-6-boronohexanoic acid]		relaxation of internal anal sphincter muscle [1]: relax this muscle; airway hyperresponsiveness (guinea pigs): prevents airway hyperresponsiveness; nitric oxide-dependent relaxation of penile corpus cavernosum [2]: enhances the nitric oxide-dependent relaxation of this tissue; erectile response (live male rabbits): enhances the erectile response; nitric oxide biosynthesis [3]: restores nitric oxide biosynthesis; engorgement response in the genitalia (live female rabbits): enhances the engorgement response; disease score [4]: improves the disease score
CN[C@H]1CN[C@H](C(=O)O)[C@@H]1CCCB(O)O [Example 29, (2S,3R,4R)-3-(3-boronopropyl)-4-(methylamino)pyrrolidine-2-carboxylic acid]	20.1	
CC(=O)N[C@H]1CN[C@H](C(=O)O)[C@@H]1CCCB(O)O [Example 50, (2S,3R,4R)-4-acetamido-3-(3-boronopropyl)pyrrolidine-2-carboxylic acid]	247	
CC1(C)[C@H]2C[C@@H]3OB(CCC[C@@H]4CCN[C@@H]4C(=O)O)O[C@]3(C)[C@@H]1C2 [Example 13, (3R)-3-{3-[(3aR,4R,6R,7aS)-3a,5,5-trimethylhexahydro-4,6-methano-1,3,2-benzodioxaborol-2-yl]propyl}-L-proline]	30	
O=C(O)[C@H]1NC[C@H](N2CCCC2)[C@H]1CCCB(O)O [Example 25, (3′R,4′S,5′S)-4′-(3-boronopropyl)-[1,3′-bipyrrolidine]-5′-carboxylic acid]	522	
C[C@H]1N[C@H](C(=O)O)[C@](C)(CCCB(O)O)[C@@H]1O [Example 74B]	> 10000	

Further lines, with some results ahead:

IC50 (Arginase (ARG1 enzyme)) [nM]	SMILES	further results
311	O=C(O)[C@@]1(CO)NCC[C@H]1CCCB(O)O [Example 59A, (2R,3R)-3-(3-boronopropyl)-2-(hydroxymethyl)pyrrolidine-2-carboxylic acid]	
> 10000	CN(C)C[C@]1(C(=O)O)NCC[C@H]1CCCB(O)O [Example 58, (2R,3R)-3-(3-boronopropyl)-2-((dimethylamino)methyl)pyrrolidine-2-carboxylic acid]	
57500	O=C(O)C1CNCCC1CCCB(O)O (stereo not shown) [Example 6, 4-[3-(dihydroxyboranyl)propyl]piperidinyl-3-carboxylic acid]	
6.62	C[C@@H]1C[C@@H](CCCB(O)O)[C@@H](C(=O)O)N1 [Example 64, (2S,3R,5R)-3-(3-boronopropyl)-5-methylpyrrolidine-2-carboxylic acid]	
